Laboratory results published in paper PMC10384862, “[^212Pb]Pb-eSOMA-01: A Promising Radioligand for Targeted Alpha Therapy of Neuroendocrine Tumors” (Pharmaceuticals, 2023).
Like-named read-outs stand apart in the source and are kept apart here.

Assays:
CD-1 mice = details: cited from earlier work; for Pancreas uptake: CD-1 mice
[1] = In vitro stability in PBS; type: physicochemical; details: ^212Pb-labeled, 37 °C, n = 1
Protocol: The ^203Pb-labeled compounds (~ 2 MBq) or the ^212Pb-labeled compounds (~ 70 kBq) were incubated in 300 µL of phosphate buffered saline (PBS; 0.1 M, pH 7.4) or mouse serum at 37 °C. The stability of the radiolabeled peptides was monitored at 1, 4, and 24 h post-incubation. The samples in PBS were directly analyzed by radio-HPLC without any pretreatment. However, samples of mouse serum were mixed with an equal volume of acetonitrile to precipitate the proteins. The solution was centrifuged twice for 5 min at 13,000 rpm, and the supernatant was analyzed by radio-HPLC using Method 1 for lead-203 and Method 2 for lead-212.

[2] = test system: H69-xenograft Balb/c nu/nu mice; assay: Biodistribution study with lead-212; type: in vivo, mouse; details: for Stomach uptake: 1 h p.i.
Protocol: (§1) Six-week-old male Balb/c nu/nu-specific and opportunistic pathogen-tree (SOPF) mice (Janvier Labs, Le Genest-Saint-Isle, France) were housed in individually ventilated cages, with four mice per cage. Upon arrival, the mice were acclimated for 1 week with access to food and water ad libitum. Mice were subcutaneously inoculated on the right shoulder with NCI-H69 cells (5 × 10^6 cells suspended in 100 μL of 1/3 Matrigel (Corning Inc.; Corning, NY, USA) and 2/3 Hank’s balanced salt solution (Gibco; Paisley, UK). NCI-H69 xenografts were allowed to grow for 3 weeks. Tumor sizes were 391 ± 173 mm^3 at the start of the studies.
(§2) Biodistribution studies were performed to determine tumor and organ uptake of [^212Pb]Pb-DOTAM-TATE, [^212Pb]Pb-eSOMA-01, and [^212Pb]Pb-eSOMA-02. Animals (n = 4 for each time point) were injected intravenously (i.v.) with an average of 100 kBq/0.5 nmol. At 3 selected time points (1, 4, and 24 h) p.i., blood was collected via retro-orbital puncture under isoflurane/O2 anesthesia, after which the mice were sacrificed via cervical dislocation. The tumor and organs of interest (heart, lungs, liver, spleen, stomach, large intestine, small intestine, pancreas, kidneys, muscle, skin, and bone) were excised, washed in PBS, and blotted dry. To confirm receptor specificity of radioligand uptake, mice (n = 3) were co-injected with an excess (25 nmol) of the respective unlabeled peptide, and uptake in the organs of interest was determined at 24 h p.i. To determine the total injected radioactivity per animal, a calibration curve with lead-212 was established using the gamma counter. The percentage of injected dose per gram (% ID/g) was determined for each tissue sample and corrected for both the injected volume and the % ID present at the injection site (the tail).

[3] = Biodistribution study with lead-212; type: in vivo, mouse; details: mouse, intravenous; for tissue uptake at 1 h: 1 h p.i.; for tissue uptake at 4 h: 4 h p.i.
Protocol: as §1, §2

kidney uptake = details: in vivo; cited from earlier work
[4] = test system: H69-tumor xenograft and organs; assay: Dosimetry (absorbed dose from 212Pb biodistribution, RADAR mouse phantom); type: in vivo; details: based on MTD to the kidneys of 18–23 Gy
Protocol: Single exponential curves were fitted through the organ biodistribution time-activity data using Graphpad Prism. […] The absorbed doses were calculated with the MIRD equation D=∑sms×[TIACs]×S(t←s) , with ms being the source organ mass. A relative biological effect (RBE) of 5 was assumed for the alpha-radiation [47]. The uncertainty propagation in the dosimetry result was calculated [48].

[5] = blood, 100 kBq, n = 4, read-out: Blood uptake
[6] = bone, 100 kBq, n = 4, read-out: Bones uptake
[7] = heart, 100 kBq, n = 4, read-out: Heart uptake
[8] = intestines, 100 kBq, n = 4, read-out: Intestines uptake
[9] = intestines, 100 kBq, 24 h p.i., n = 4, read-out: Intestines uptake
[10] = kidneys, 100 kBq, n = 4, read-out: Kidneys uptake
[11] = kidneys, 100 kBq, 24 h p.i., n = 4, read-out: Kidneys uptake
[12] = kidneys, 24 h block: co-injection of excess (25 nmol) unlabeled peptide, read-out: Kidneys uptake
[13] = liver, 100 kBq, n = 4, read-out: Liver uptake
[14] = liver, 100 kBq, 24 h p.i., n = 4, read-out: Liver uptake
[15] = liver, 24 h block: co-injection of excess (25 nmol) unlabeled peptide, read-out: Liver uptake
[16] = lungs, 100 kBq, n = 4, read-out: Lungs uptake
[17] = lungs, 100 kBq, 24 h p.i., n = 4, read-out: Lungs uptake
[18] = pancreas, 100 kBq, n = 4, read-out: Pancreas uptake
[19] = skin, 100 kBq, n = 4, read-out: Skin uptake
[20] = spleen, 100 kBq, n = 4, read-out: Spleen uptake
[21] = stomach, 100 kBq, n = 4, read-out: Stomach uptake
[22] = stomach, 100 kBq, 24 h p.i., n = 4, read-out: Stomach uptake
[23] = stomach, 24 h block: co-injection of excess (25 nmol) unlabeled peptide, read-out: Stomach uptake
[24] = tumor, 100 kBq, n = 4, read-out: Tumor uptake
[25] = tumor, 100 kBq, 24 h p.i., n = 4, read-out: Tumor uptake

## C[C@@H](O)[C@H](NC(=O)[C@@H]1CSSC[C@H](NC(=O)[C@@H](Cc2ccccc2)NC(=O)CN2CCN(CC(N)=O)CCN(CC(N)=O)CCN(CC(N)=O)CC2)C(=O)N[C@@H](Cc2ccc(O)cc2)C(=O)N[C@H](Cc2c[nH]c3ccccc23)C(=O)N[C@@H](CCCCN)C(=O)N[C@@H]([C@@H](C)O)C(=O)N1)C(=O)O [[^212Pb]Pb-DOTAM-TATE, metal not drawn, reference compound]
CD-1 mice; 1 h, ref Tworowska et al.
  Pancreas uptake: 32 % ID/g
  Kidney uptake: 21 % ID/g
CD-1 mice; 4 h, ref Tworowska et al.
  Pancreas uptake: 15 % ID/g
CD-1 mice; 24 h, ref Tworowska et al.
  Kidney uptake: 10 % ID/g
CD-1 mice; mice
  MTD (maximum tolerated absorbed dose) to the kidneys: 18–23 Gy
CD-1 mice; ref Tworowska et al.
  Tumor uptake: ~ 20 % ID/g
[1]; 1 h
  Stability in PBS, intact labeled ligand: 99%
[1]; 4 h
  Stability in PBS, intact labeled ligand: 98%
[1]; 24 h
  Stability in PBS, intact labeled ligand: 95%
[2]; n = 4
  Stomach uptake: 2.7 % ID/g
[2]; 4 h p.i., n = 4
  Tumor uptake: ~ 9 % ID/g
[2]; 24 h p.i., n = 4
  Kidneys uptake: 29 ± 6 % ID/g
  Tumor uptake: ~ 6 % ID/g
[3]; [5]
  tissue uptake at 1 h: 1.34 ± 0.53 %ID/g
  tissue uptake at 4 h: 0.02 ± 0.03 %ID/g
[3]; [6]
  tissue uptake at 1 h: 0.69 ± 0.02 %ID/g
[3]; [7]
  tissue uptake at 1 h: 0.61 ± 0.34 %ID/g
[3]; [8]
  tissue uptake at 1 h: 2.03 ± 0.63 %ID/g
  tissue uptake at 4 h: 0.68 ± 0.08 %ID/g
[3]; [9]
  tissue uptake at 24 h: 0.22 ± 0.04 %ID/g
[3]; [10]
  tissue uptake at 1 h: 53.5 ± 4.18 %ID/g
  tissue uptake at 4 h: 49.4 ± 2.92 %ID/g
[3]; [11]
  tissue uptake at 24 h: 29.2 ± 5.11 %ID/g
[3]; [12]
  tissue uptake at 24 h: 25.8 ± 9.18 %ID/g
[3]; [13]
  tissue uptake at 1 h: 2.69 ± 0.18 %ID/g
  tissue uptake at 4 h: 2.26 ± 0.3 %ID/g
[3]; [14]
  tissue uptake at 24 h: 1.42 ± 0.17 %ID/g
[3]; [15]
  tissue uptake at 24 h: 0.25 ± 0.46 %ID/g
[3]; [16]
  tissue uptake at 1 h: 2.75 ± 0.52 %ID/g
  tissue uptake at 4 h: 0.82 ± 0.36 %ID/g
[3]; [17]
  tissue uptake at 24 h: 0.33 ± 0.11 %ID/g
[3]; [18]
  tissue uptake at 1 h: 5.19 ± 0.84 %ID/g
  tissue uptake at 4 h: 1.14 ± 0.13 %ID/g
[3]; pancreas, 100 kBq, 24 h p.i., n = 4, read-out: Pancreas uptake
  tissue uptake at 24 h: 0.28 ± 0.06 %ID/g
[3]; [19]
  tissue uptake at 1 h: 1 ± 0.38 %ID/g
  tissue uptake at 4 h: 0.59 ± 0.21 %ID/g
[3]; [20]
  tissue uptake at 1 h: 0.55 ± 0.21 %ID/g
  tissue uptake at 4 h: 0.22 ± 0.06 %ID/g
[3]; [21]
  tissue uptake at 1 h: 2.69 ± 0.53 %ID/g
  tissue uptake at 4 h: 1.62 ± 0.5 %ID/g
[3]; [22]
  tissue uptake at 24 h: 0.61 ± 0.18 %ID/g
[3]; [23]
  tissue uptake at 24 h: 0.25 ± 0.28 %ID/g
[3]; [24]
  tissue uptake at 1 h: 9.57 ± 3.05 %ID/g
  tissue uptake at 4 h: 8.04 ± 3.26 %ID/g
[3]; [25]
  tissue uptake at 24 h: 6.07 ± 1.28 %ID/g
[3]; tumor, 100 kBq, time point not stated
  tissue uptake: 8 to 9 %ID/g
Kidney uptake
  Reduction in kidney uptake: 3 fold

## C[C@@H](O)[C@H](NC(=O)[C@@H]1CSSC[C@H](NC(=O)[C@@H](Cc2ccccc2)NC(=O)[C@H]2CC[C@H](CNC(=O)CN3CCN(CC(N)=O)CCN(CC(N)=O)CCN(CC(N)=O)CC3)CC2)C(=O)N[C@@H](Cc2ccc(O)cc2)C(=O)N[C@H](Cc2c[nH]c3ccccc23)C(=O)N[C@@H](CCCCN)C(=O)N[C@@H]([C@@H](C)O)C(=O)N1)C(=O)O [[^212Pb]Pb-eSOMA-01, metal not drawn]
[4]
  Maximum dose injected into mice: around 0.2 MBq
[1]; 1 h
  Stability in PBS, intact labeled ligand: 99%
[1]; 4 h
  Stability in PBS, intact labeled ligand: 97%
[1]; 24 h
  Stability in PBS, intact labeled ligand: 94%
[2]; 1 h and 24 h, p < 0.05
  More tumor uptake than [212Pb]Pb-eSOMA-02: 61%
[2]; n = 4
  Stomach uptake: 7.1 % ID/g
[2]; 4 h p.i., n = 4
  Tumor uptake: ~ 9 % ID/g
[2]; 24 h p.i., n = 4
  Tumor uptake: ~ 6 % ID/g
[3]; [5]
  tissue uptake at 1 h: 1.8 ± 0.37 %ID/g
[3]; [6]
  tissue uptake at 1 h: 1.75 ± 0.44 %ID/g
  tissue uptake at 4 h: 0.14 ± 0.09 %ID/g
[3]; [7]
  tissue uptake at 1 h: 0.71 ± 0.33 %ID/g
[3]; [8]
  tissue uptake at 1 h: 2.12 ± 0.39 %ID/g
  tissue uptake at 4 h: 0.97 ± 0.12 %ID/g
[3]; [9]
  tissue uptake at 24 h: 0.23 ± 0.02 %ID/g
[3]; intestines, 24 h block: co-injection of excess (25 nmol) unlabeled peptide, read-out: Intestines uptake
  tissue uptake at 24 h: 0.06 ± 0.04 %ID/g
[3]; [10]
  tissue uptake at 1 h: 78.8 ± 12.1 %ID/g
  tissue uptake at 4 h: 39.6 ± 4.95 %ID/g
[3]; [11]
  tissue uptake at 24 h: 22 ± 4.06 %ID/g
[3]; [12]
  tissue uptake at 24 h: 17.8 ± 3.85 %ID/g
[3]; [13]
  tissue uptake at 1 h: 4.72 ± 0.53 %ID/g
  tissue uptake at 4 h: 2.73 ± 0.49 %ID/g
[3]; [14]
  tissue uptake at 24 h: 1.7 ± 0.31 %ID/g
[3]; [15]
  tissue uptake at 24 h: 1.07 ± 0.14 %ID/g
[3]; [16]
  tissue uptake at 1 h: 4.05 ± 0.69 %ID/g
  tissue uptake at 4 h: 1.38 ± 0.54 %ID/g
[3]; [17]
  tissue uptake at 24 h: 0.44 ± 0.2 %ID/g
[3]; muscle, 100 kBq, n = 4, read-out: Muscle uptake
  tissue uptake at 1 h: 0.22 ± 0.51 %ID/g
[3]; [18]
  tissue uptake at 1 h: 7.86 ± 0.43 %ID/g
  tissue uptake at 4 h: 1.72 ± 0.16 %ID/g
[3]; [19]
  tissue uptake at 1 h: 2.23 ± 0.26 %ID/g
  tissue uptake at 4 h: 0.17 ± 0.74 %ID/g
[3]; [20]
  tissue uptake at 1 h: 0.98 ± 0.28 %ID/g
  tissue uptake at 4 h: 0.23 ± 0.12 %ID/g
[3]; [21]
  tissue uptake at 1 h: 7.08 ± 0.28 %ID/g
  tissue uptake at 4 h: 2.51 ± 1.51 %ID/g
[3]; [22]
  tissue uptake at 24 h: 0.87 ± 0.53 %ID/g
[3]; [23]
  tissue uptake at 24 h: 0.05 ± 0.01 %ID/g
[3]; [24]
  tissue uptake at 1 h: 16.1 ± 2.31 %ID/g
  tissue uptake at 4 h: 10.9 ± 3.81 %ID/g
[3]; [25]
  tissue uptake at 24 h: 6.83 ± 1.28 %ID/g
